# Laboratory results as given in US20250313563A1, “GLYCOGEN SYNTHASE KINASE 3 INHIBITORS AND USES THEREOF” (The Broad Institute, Inc., priority 2022, published 2025).
# Read-outs that look alike come from different tables or passages of the source.
# Assays:
# [1] = biological target: GSK3b (GST-full length GSK3b) (Homo sapiens (Human), UniProt P49841); assay: GSK3b TR-FRET kinase assay; format: biochemical
# Procedure, shortened: (§1)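 IC50 came from the normalized 665/615 nm TR-FRET ratio plotted against log compound concentration. The Tb-labelled pSer641 antibody and streptavidin-d2 detected phosphorylation of biotinylated S645-primed glycogen synthase peptide (200 nM) by 1 nM full-length GST-kinase. ATP was 4 μM for α, 2 μM for β, or 1 mM.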
# [2] = biological target: GSK3α (GST-full length GSK3α) (Homo sapiens (Human), UniProt P49840); assay: GSK3α TR-FRET kinase assay; format: biochemical
# Procedure, shortened: as §1
# [3] = 1 nM GSK3b, 2 μM ATP, 30 minute preincubation, geometric mean, read-out: GSK3-B TR-FRET BIOCHEMICAL (TR-FRET), GMean, IC50
# [4] = 1 nM GSK3α, 4 μM ATP, 30 minute preincubation, geometric mean, read-out: GSK3-A TR-FRET BIOCHEMICAL (TR-FRET), GMean, IC50
# [5] = 1 nM GSK3b, 2 μM ATP, 30 minute preincubation, read-out: GSK3-B TR-FRET BIOCHEMICAL (TR-FRET), IC50
# [6] = 1 nM GSK3α, 4 μM ATP, 30 minute preincubation, read-out: GSK3-A TR-FRET BIOCHEMICAL (TR-FRET), IC50
# [7] = 1 nM GSK3b, 2 μM ATP, 30 minute preincubation, Table 16, read-out: GSK3-B TR-FRET BIOCHEMICAL (TR-FRET), IC50
# [8] = 1 nM GSK3α, 4 μM ATP, 30 minute preincubation, Table 16, read-out: GSK3-A TR-FRET BIOCHEMICAL (TR-FRET), IC50
# [9] = read-out: GSK3-B (TR-FRET 1 mM ATP), GMean, IC50, 1 mM ATP, geometric mean
# [10] = read-out: GSK3-A (TR-FRET 1 mM ATP), GMean, IC50, 1 mM ATP, geometric mean
# [11] = 1 nM GSK3b, 2 μM ATP, 30 minute preincubation, Table 16, read-out: GSK3-B TR-FRET BIOCHEMICAL (TR-FRET)
# [12] = 1 nM GSK3α, 4 μM ATP, 30 minute preincubation, Table 16, read-out: GSK3-A TR-FRET BIOCHEMICAL (TR-FRET)
# Sequence of GSK3α (GST-full length GSK3α) (P49840 whole entry): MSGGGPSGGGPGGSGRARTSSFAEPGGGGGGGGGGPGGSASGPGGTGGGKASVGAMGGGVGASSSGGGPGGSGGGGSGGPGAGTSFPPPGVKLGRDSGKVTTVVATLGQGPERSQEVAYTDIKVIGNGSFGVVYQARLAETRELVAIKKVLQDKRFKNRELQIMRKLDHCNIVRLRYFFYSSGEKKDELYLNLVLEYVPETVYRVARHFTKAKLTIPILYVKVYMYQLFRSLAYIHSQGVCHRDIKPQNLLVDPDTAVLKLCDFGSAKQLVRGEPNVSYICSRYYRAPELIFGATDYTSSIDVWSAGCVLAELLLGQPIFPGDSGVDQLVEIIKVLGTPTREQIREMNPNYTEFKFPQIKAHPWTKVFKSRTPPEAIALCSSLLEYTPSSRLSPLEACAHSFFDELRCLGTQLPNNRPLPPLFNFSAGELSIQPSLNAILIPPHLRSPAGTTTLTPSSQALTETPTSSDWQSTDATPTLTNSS
# Sequence of GSK3b (GST-full length GSK3b) (P49841 whole entry): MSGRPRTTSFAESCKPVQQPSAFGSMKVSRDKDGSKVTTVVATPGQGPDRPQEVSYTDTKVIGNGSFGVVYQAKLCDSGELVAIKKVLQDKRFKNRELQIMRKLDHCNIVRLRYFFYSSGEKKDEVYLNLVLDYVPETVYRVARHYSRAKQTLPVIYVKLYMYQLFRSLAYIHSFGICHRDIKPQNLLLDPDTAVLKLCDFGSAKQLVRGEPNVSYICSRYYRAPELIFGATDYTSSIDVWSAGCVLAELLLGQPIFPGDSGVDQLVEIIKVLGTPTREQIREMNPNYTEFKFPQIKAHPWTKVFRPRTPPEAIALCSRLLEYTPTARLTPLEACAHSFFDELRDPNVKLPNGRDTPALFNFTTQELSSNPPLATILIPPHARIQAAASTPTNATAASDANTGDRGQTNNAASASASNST
smiles,measurement,setting,value
CCC1(c2cccc(-c3ccnc(C)c3C)c2)C2=C(CC(C)(C)NC2=O)Nc2n[nH]c(C)c21 (stereo not shown) [Compound 947399],IC50,[1]; [3],1000 to 5000 nM
same,IC50,[2]; [4],100 to 1000 nM
CCC1(c2cccc(C(F)(F)F)c2)C2=C(CCN(c3ccccc3C)C2=O)Nc2n[nH]cc21 (stereo not shown) [Compound 949128],IC50,[1]; [3],100 to 1000 nM
same,IC50,[2]; [4],≤ 100 nM
CCC1(c2cccc(-c3cc(C)nn3C)c2)C2=C(CC(C)(C)NC2=O)Nc2[nH]ncc21 (stereo not shown) [Compound 943371],IC50,[1]; [5],1000 to 5000 nM
same,IC50,[2]; [6],≤ 100 nM
CCC1(c2cccc(-c3ccn(C)n3)c2)C2=C(CC(C)(C)CC2=O)Nc2n[nH]c(C)c21 (stereo not shown) [Compound 883999],IC50,[1]; [7],≤ 100 nM
same,IC50,[2]; [8],≤ 100 nM
CCC1(c2cccc(N3CCCC3C)c2)C2=C(CC(C)(C)CC2=O)Nc2n[nH]cc21 (mixture of isomers) [Compound 885188],IC50,[1]; [7],100 to 1000 nM
same,IC50,[2]; [8],100 to 1000 nM
CC1(C)CC(=O)C2=C(C1)Nc1n[nH]cc1C21COC2(CN(C(=O)Cc3ccccc3)C2)C1 (stereo not shown) [Compound 947306],IC50,[1]; [5],≤ 100 nM
same,IC50,[1]; [9],≤ 100 nM
same,IC50,[2]; [6],≤ 100 nM
same,IC50,[2]; [10],≤ 100 nM
CCC1(c2cccc(C(F)(F)F)c2)C2=C(CCN(c3cccs3)C2=O)Nc2n[nH]cc21 (stereo not shown) [Compound 950614],IC50,[1]; [7],100 to 1000 nM
same,IC50,[2]; [8],≤ 100 nM
C[C@@H]1CC(=O)C2=C(C1)Nc1n[nH]cc1C21CCOCC1 [Compound 912079],IC50,[1]; [7],100 to 1000 nM
same,IC50,[2]; [8],100 to 1000 nM
CC1(C)CC(=O)C2=C(C1)Nc1n[nH]cc1[C@@]21CCO[C@@H](C(C)(C)C)C1 [Compound 912113],IC50,[1]; [7],1000 to 5000 nM
same,IC50,[2]; [8],1000 to 5000 nM
CCC1(c2cccc(C(F)(F)F)c2)C2=C(CCN(c3cn[nH]c3)C2=O)Nc2n[nH]cc21 (stereo not shown) [Compound 950479],IC50,[1]; [7],100 to 1000 nM
same,IC50,[2]; [8],≤ 100 nM
CC[C@@]1(c2cccc(OC(C)C)c2)C2=C(CC(C)(C)CC2=O)Nc2n[nH]c(C(F)(F)F)c21 [Compound 947872],IC50,[1]; [11],1000 to 5000 nM
same,IC50,[2]; [12],100 to 1000 nM
CC1(C)CC(=O)C2=C(C1)Nc1n[nH]c(C3(C(F)(F)F)CC3)c1C21CCc2c(F)cccc21 (stereo not shown) [Compound 816840],IC50,[1]; [3],100 to 1000 nM
same,IC50,[2]; [4],1000 to 5000 nM
CC(C)(C)Cc1[nH]nc2c1C1(CCc3c(F)cccc31)C1=C(CC(C)(C)CC1=O)N2 (stereo not shown) [Compound 791256],IC50,[1]; [3],1000 to 5000 nM
same,IC50,[2]; [4],> 1700 nM
CCC1(c2cccc(-c3cn[nH]c3)c2)C2=C(CC(C)(C)CC2=O)Nc2n[nH]c(C)c21 (stereo not shown) [Compound 883994],IC50,[1]; [7],≤ 100 nM
same,IC50,[2]; [8],≤ 100 nM
CC[C@]1(c2cccc(S(=O)(=O)C3CC3)c2)C2=C(CC(C)(C)N(C)C2=O)Nc2n[nH]cc21 [Compound 949177],IC50,[1]; [3],≤ 100 nM
same,IC50,[1]; [9],1000 to 5000 nM
same,IC50,[2]; [4],≤ 100 nM
same,IC50,[2]; [10],100 to 1000 nM
CC[C@]1(c2cc(-c3ccncc3)ccc2F)C2=C(CC(C)(C)CC2=O)Nc2n[nH]cc21 [Compound 893324],IC50,[1]; [7],> 5000 nM
same,IC50,[2]; [8],1000 to 5000 nM
CC[C@]1(c2cccc(N3CCC[C@H]3C)c2)C2=C(CC(C)(C)CC2=O)Nc2n[nH]cc21 [Compound 918322],IC50,[1]; [7],> 5000 nM
same,IC50,[2]; [8],> 5000 nM
CC[C@@]1(c2cccc(-c3c(C)nn(C)c3C)c2)C2=C(CC(C)(C)CC2=O)Nc2n[nH]cc21 [Compound 911990],IC50,[1]; [7],≤ 100 nM
same,IC50,[1]; [9],100 to 1000 nM
same,IC50,[2]; [8],≤ 100 nM
same,IC50,[2]; [10],≤ 100 nM
CCC1(c2cccc(-c3c(C)nnn3C)c2)C2=C(CC(C)(C)CC2=O)Nc2n[nH]cc21 (stereo not shown) [Compound 943996],IC50,[1]; [11],≤ 100 nM
same,IC50,[1]; [9],100 to 1000 nM
same,IC50,[2]; [12],≤ 100 nM
same,IC50,[2]; [10],≤ 100 nM
CC1(C)CC(=O)C2=C(Nc3n[nH]cc3C23CCOCC3)[C@H]1F [Compound 883833],IC50,[1]; [11],1000 to 5000 nM
same,IC50,[2]; [12],100 to 1000 nM
CO[C@H]1CC[C@@]2(CC1)C1=C(CC(C)(C)CC1=O)Nc1n[nH]cc12 [Compound 884120],IC50,[1]; [11],100 to 1000 nM
same,IC50,[2]; [12],100 to 1000 nM
CC[C@]1(c2cccc(S(=O)(=O)C3CC3)c2)C2=C(CC(C)(C)CC2=O)Nc2n[nH]c(C(F)(F)F)c21 [Compound 945715],IC50,[1]; [11],≤ 100 nM
same,IC50,[2]; [12],≤ 100 nM
CC1(C)CC(=O)C2=C(C1)Nc1n[nH]cc1C21CCCN(S(=O)(=O)C2CC2)CC1 (stereo not shown) [Compound 917137],IC50,[1]; [11],≤ 100 nM
same,IC50,[2]; [12],≤ 100 nM
CCC1(c2cccc(-c3ccnc(C)c3)c2)C2=C(CC(C)(C)NC2=O)Nc2n[nH]cc21 (stereo not shown) [Compound 914930],IC50,[1]; [5],1000 to 5000 nM
same,IC50,[2]; [6],≤ 100 nM
CC[C@@]1(c2cccc(-c3c(F)cncc3OC)c2)C2=C(CC(C)(C)CC2=O)Nc2n[nH]cc21 [Compound 947511],IC50,[1]; [11],≤ 100 nM
same,IC50,[1]; [9],≤ 100 nM
same,IC50,[2]; [12],≤ 100 nM
same,IC50,[2]; [10],≤ 100 nM
CCN(c1cccc(C2(CC)C3=C(CC(C)(C)CC3=O)Nc3n[nH]cc32)c1)c1ncccn1 (stereo not shown) [Compound 919840],IC50,[1]; [7],≤ 100 nM
same,IC50,[2]; [8],≤ 100 nM
CC1(C)CC(=O)C2=C(C1)Nc1n[nH]cc1[C@@]21COC2(CN(C(=O)c3ccccc3)C2)C1 [Compound 943955],IC50,[1]; [5],≤ 100 nM
same,IC50,[2]; [6],≤ 100 nM
COc1ccc(S(=O)(=O)N2CCC3(CC2)C2=C(CC(C)(C)CC2=O)Nc2n[nH]cc23)cc1 [Compound 901469],IC50,"[1]; GSK3-B (TR-FRET 1 mM ATP), GMean, IC50, 1 mM ATP, geometric mean",100 to 1000 nM
same,IC50,"[2]; GSK3-A (TR-FRET 1 mM ATP), GMean, IC50, 1 mM ATP, geometric mean",100 to 1000 nM
CC1(C)CC(=O)C2=C(C1)Nc1n[nH]cc1[C@@]21CCN(S(C)(=O)=O)C1 [Compound 942462],IC50,[1]; [11],≤ 100 nM
same,IC50,[2]; [12],≤ 100 nM
CCC1(c2cccc(-c3cc(C)nn3C)c2)C2=C(CC(C)(C)CC2=O)Nc2n[nH]cc21 (stereo not shown) [Compound 929402],IC50,[1]; [7],100 to 1000 nM
same,IC50,[2]; [8],≤ 100 nM
CCC1(c2cccc(-c3ccnc4cc(OC)ccc34)c2)C2=C(CC(C)(C)NC2=O)Nc2n[nH]cc21 (stereo not shown) [Compound 948649],IC50,[1]; [3],> 5000 nM
same,IC50,[2]; [4],> 5000 nM
CCC1(c2cccc(S(=O)(=O)C3CC3)c2)C2=C(CC(C)(C)N(C)C2=O)Nc2n[nH]cc21 (stereo not shown) [Compound 948303],IC50,[1]; [3],≤ 100 nM
same,IC50,[2]; [4],≤ 100 nM
CC1(C)CC(=O)C2=C(C1)Nc1n[nH]cc1C21CCC(C(=O)N2CCCC2)CC1 (stereo not shown) [Compound 945396],IC50,[1]; [11],100 to 1000 nM
same,IC50,[2]; [12],100 to 1000 nM
CCC1(c2cccc(-c3ccnc(C)c3C)c2)C2=C(CC(C)(C)NC2=O)Nc2n[nH]c(C)c21 (stereo not shown) [Compound 948187],IC50,[1]; [3],≤ 100 nM
same,IC50,[2]; [4],≤ 100 nM
C[C@@H]1C[C@@]2(CCN1S(C)(=O)=O)C1=C(CC(C)(C)CC1=O)Nc1n[nH]cc12 [Compound 918316],IC50,[1]; [11],100 to 1000 nM
same,IC50,[2]; [12],≤ 100 nM
CC[C@]1(c2cccc(N(C)c3ncccn3)c2)C2=C(CC(C)(C)NC2=O)Nc2n[nH]cc21 [Compound 947826],IC50,[1]; [3],≤ 100 nM
same,IC50,[2]; [4],≤ 100 nM
CC[C@@]1(c2cccc(-c3ccnc(CCO)c3)c2)C2=C(CC(C)(C)CC2=O)Nc2n[nH]cc21 [Compound 947816],IC50,[1]; [11],> 5000 nM
same,IC50,[2]; [12],1000 to 5000 nM
CC[C@@]1(c2cccc(-c3ccnc(C(F)F)c3)c2)C2=C(CC(C)(C)NC2=O)Nc2n[nH]cc21 [Compound 949388],IC50,[1]; [7],> 5000 nM
same,IC50,[2]; [8],1000 to 5000 nM
CCC1(c2cccc(S(=O)(=O)C3CC3)c2)C2=C(CC(C)(C)NC2=O)Nc2n[nH]c(C(F)(F)F)c21 (stereo not shown) [Compound 947859],IC50,[1]; [3],≤ 100 nM
same,IC50,[1]; [9],≤ 100 nM
same,IC50,[2]; [4],≤ 100 nM
same,IC50,[2]; [10],≤ 100 nM
Cc1nc(C)c(S(=O)(=O)N2CCC3(CC2)C2=C(CC(C)(C)CC2=O)Nc2n[nH]cc23)s1 [Compound 947259],IC50,[1]; [11],≤ 100 nM
same,IC50,[2]; [12],≤ 100 nM
Cn1cc([C@H]2CC[C@]3(CC2)C2=C(CC(C)(C)CC2=O)Nc2n[nH]cc23)cn1 [Compound 949323],IC50,[1]; [7],> 5000 nM
same,IC50,[2]; [8],1000 to 5000 nM
